US7344845B2, “Olfactory receptor for isovaleric acid and related malodorants and use thereof in assays for identification of blockers of malodor” (Senomyx, Inc., priority 2001, dated 2008)

Tested on: individual murine olfactory neurons
Experiment: Ca2+ imaging (fura-2) of isolated murine olfactory neurons contacted with isovaleric acid
Assay type: cell-based, Balb/C mice
Protocol: Essentially, individual murine olfactory neurons isolated from an enzymatically and mechanically dissociated preparations of murine olfactory epithelium. A very mild trypsin dissociation allows to obtain a single cell suspension in which neurons still bear their axon and dendrites and can therefore be picked based on their morphology. The neurons were loaded with a Ca^2+-sensing fluorescent dye (fura-2) and contacted with isovaleric acid (at 10–100 μM). Single neurons that responded to the isovaleric acid stimulus, as indicated by transient increases in the concentration of intracellular Ca2+ were identified in a microscope field and collected using a suction microcapillary. […]
Olfactory neuroepithelium was dissected from Balb/C mice and placed in a small Petri dish with phosphate-buffered saline (PBS) without Ca^2+ and Mg^2+. […] After dissociation, the tissue was transferred into 5 ml PBS without Ca^2+ and Mg^2+ and the tissue was triturated very gently by pipetting up and down 4–5 times with plastic disposable, progress of cell dissociation was monitored under inverted microscope. […] Isolated olfactory sensory neurons were identified in an inverted microscope field either by their morphology alone (for random control neurons) or by the morphology and ability to respond to IVA as detected by Ca^2+-imaging. […]

- murine olfactory receptors activated (receptors expressed in IVA-responding neurons) (isovaleric acid at 10–100 μM, eleven murine olfactory receptors, mOR IVA A through mOR IVA L): activated
SMILES: CC(C)CC(=O)O [isovaleric acid]
- response of a single olfactory neuron indicated by changes in fura-2 fluorescence intensity ratios (340/380 nm) (IVA at either 100 μM or 10 μM, single isolated neuron, FIG. 3): response
